From patent US20240210412A1, “SULFONYL-TRIAZOLE COMPOUNDS USEFUL AS LIGANDS AND INHIBITORS OF PROSTAGLANDIN REDUCTASE 2” (University of Virginia Patent Foundation, priority 2021, published 2024)
Values belong to the molecule of their own block, whether it stands above or below them.

Columns and labels:
Assay in all cases: SILAC LC-MS ABPP
Type in all cases: cell-based
[1] = biological target: T1, Q8N8N7 (prostaglandin reductase 2, PTGR2) (Homo sapiens, UniProt Q8N8N7)
T1 construct: endogenous in cells; host or cells: DM93 cells (SILAC), live-cell treatment
T1 sequence (Q8N8N7 whole entry): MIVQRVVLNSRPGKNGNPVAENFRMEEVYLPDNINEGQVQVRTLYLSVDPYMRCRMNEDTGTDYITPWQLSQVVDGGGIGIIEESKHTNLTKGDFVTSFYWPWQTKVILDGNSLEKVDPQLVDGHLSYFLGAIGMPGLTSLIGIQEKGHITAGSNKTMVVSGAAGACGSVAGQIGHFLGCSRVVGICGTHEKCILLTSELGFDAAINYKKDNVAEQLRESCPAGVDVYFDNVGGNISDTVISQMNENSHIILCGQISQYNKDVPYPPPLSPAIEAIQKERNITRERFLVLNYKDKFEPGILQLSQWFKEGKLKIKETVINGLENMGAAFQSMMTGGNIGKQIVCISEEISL
Description: (§1) Cells were grown to 90-95% confluence before being washed once with warm, sterile DPBS (1×, 5 mL), followed by addition of 10 mL of serum-free media (supplemented with 1% L-glutamine) containing either DMSO or SuTEx fragment (in DMSO) was added. Light cells were treated with DMSO vehicle while the heavy cells were treated with DMSO or SuTEx fragment (in DMSO) and incubated for 2 hrs. After 2 hrs, the cells were treated with SuTEx alkyne probe (HHS475, 10 μL of 1000× DMSO stock) and incubated for an additional 2 hrs. The media was aspirated and cells washed with cold PBS (5 mL) and harvested. Cells were spun at 500×g for 5 min at 4° C. followed by removal of supernatant. Pellets were resuspended in 1 mL of cold DPBS and spun at 1,400×g for 3 min at 4° C. followed by removal of supernatant. The cells were lysed in PBS by sonication and fractionated (100,000×g, 45 min, 4° C.).The light and heavy soluble fractions were diluted to 2.3 mg/mL in PBS and 432 μL were used for analysis (1 mg total protein). The probe-modified proteomes were conjugated to desthiobiotin-PEG3-azide (10 μl of 10 mM stock in DMSO; 200 μM final concentration) using TCEP (10 μl of fresh 50 mM stock in water, 1 mM final concentration), TBTA ligand (33 μl of a 1.7 mM 4:1 t-butanol/DMSO stock, 100 μM final concentration) and CuSO4 (10 μl of 50 mM stock, 1 mM final concentration). Samples were vortexed to mix and incubated for 1 hr at room temperature. The heavy and light proteomes were mixed 1:1 and the subsequent steps, including LC-MS/MS data analysis, were performed as previously described^[8a].
(§2) Coupling cell-based screens with chemical proteomics can facilitate the identification of target protein and binding sites that engage and are irreversibly modified by covalent ligands^[12]. In these assays, covalent ligands block SuTEx activity-based probe (ABP) labeling at protein sites, and the competition of probe labeling can be used to quantify potency and selectivity across the proteome^[10a]. To facilitate quantitative chemical proteomics, DM93 melanoma cells were cultured using stable isotopic labeling by amino acids in cell culture (SILAC)^[13]. Cells cultured in “light” media were treated with dimethyl sulfoxide (DMSO) vehicle while cells cultured in “heavy” media were treated with SuTEx ligand (25 μM, 2 hours, 37° C.). Next, cells were treated with HHS-475 probe (100 μM, 2 hours, 37° C.) followed by lysis and processing of proteomes for analysis. Probe-modified proteins from the soluble fraction were conjugated to a desthiobiotin-azide tag by copper-catalyzed azide-alkyne cycloaddition (CuAAC)^[14] followed by mixing of the light and heavy proteomes. The combined proteomes were digested with trypsin protease to produce probe-modified peptides, followed by enrichment and purification by avidin affinity chromatography. Probe-modified peptides were resolved, identified, and quantified by high-resolution liquid chromatography-tandem mass spectrometry (LC-MS/MS). Resultant data were analyzed as previously described^[8a, 10a]. Table 2, below, lists sites of modification targeted by sulfonyl-triazole compounds HHS-0101, HHS-0201, HHS-0301, HHS-0401, and HHS-0701. The format of the table is as follows: protein Uniprot accession number (see uniprot.org); tyrosine site (amino acid position) modified; treatment (sulfonyl-triazole compound identification number, followed by Y (where if multiple compounds modify the same site, the compounds are separated by vertical lines).
Confirmatory studies were also performed on prostaglandin reductase 2 (PTGR2) because of its role in the reduction of the bioactive lipid, 15-keto-PGE2^[17]. […] The chemical proteomic studies also identified additional tyrosine sites (e.g. Y265) competed by HHS-0701 albeit to a lesser degree (SR<5) compared with Y100. […]

[2] = biological target: T2, Q96AE4 (Homo sapiens, UniProt Q96AE4); details: 25 μM 2 h, live DM93 cells
T2 construct: endogenous in cells; host or cells: DM93 cells (SILAC), treated live; soluble proteome analysed
T2 sequence (Q96AE4 whole entry): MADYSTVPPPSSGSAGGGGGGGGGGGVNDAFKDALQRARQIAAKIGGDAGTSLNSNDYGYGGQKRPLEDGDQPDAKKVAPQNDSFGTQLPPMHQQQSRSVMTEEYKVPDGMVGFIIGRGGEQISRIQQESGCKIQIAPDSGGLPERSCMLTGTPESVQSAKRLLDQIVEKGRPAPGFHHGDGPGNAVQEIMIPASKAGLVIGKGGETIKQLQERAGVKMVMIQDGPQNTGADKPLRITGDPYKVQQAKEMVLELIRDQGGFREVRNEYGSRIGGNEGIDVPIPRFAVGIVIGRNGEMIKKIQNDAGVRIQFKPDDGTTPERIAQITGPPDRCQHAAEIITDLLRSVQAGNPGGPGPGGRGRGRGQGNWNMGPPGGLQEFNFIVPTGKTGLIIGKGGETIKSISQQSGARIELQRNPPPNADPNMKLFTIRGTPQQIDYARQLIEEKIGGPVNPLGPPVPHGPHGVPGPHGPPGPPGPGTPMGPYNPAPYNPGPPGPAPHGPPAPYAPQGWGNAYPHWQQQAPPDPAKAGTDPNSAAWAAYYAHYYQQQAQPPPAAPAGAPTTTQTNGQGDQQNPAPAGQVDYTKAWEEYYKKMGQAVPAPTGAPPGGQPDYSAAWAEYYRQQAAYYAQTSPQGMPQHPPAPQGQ
Description: as §1, §2

[3] = biological target: T3, Q93052 (Homo sapiens, UniProt Q93052); details: 25 μM 2 h, live DM93 cells
T3 construct: endogenous in cells; host or cells: DM93 cells (SILAC), live-cell treatment
T3 sequence (Q93052 1-612): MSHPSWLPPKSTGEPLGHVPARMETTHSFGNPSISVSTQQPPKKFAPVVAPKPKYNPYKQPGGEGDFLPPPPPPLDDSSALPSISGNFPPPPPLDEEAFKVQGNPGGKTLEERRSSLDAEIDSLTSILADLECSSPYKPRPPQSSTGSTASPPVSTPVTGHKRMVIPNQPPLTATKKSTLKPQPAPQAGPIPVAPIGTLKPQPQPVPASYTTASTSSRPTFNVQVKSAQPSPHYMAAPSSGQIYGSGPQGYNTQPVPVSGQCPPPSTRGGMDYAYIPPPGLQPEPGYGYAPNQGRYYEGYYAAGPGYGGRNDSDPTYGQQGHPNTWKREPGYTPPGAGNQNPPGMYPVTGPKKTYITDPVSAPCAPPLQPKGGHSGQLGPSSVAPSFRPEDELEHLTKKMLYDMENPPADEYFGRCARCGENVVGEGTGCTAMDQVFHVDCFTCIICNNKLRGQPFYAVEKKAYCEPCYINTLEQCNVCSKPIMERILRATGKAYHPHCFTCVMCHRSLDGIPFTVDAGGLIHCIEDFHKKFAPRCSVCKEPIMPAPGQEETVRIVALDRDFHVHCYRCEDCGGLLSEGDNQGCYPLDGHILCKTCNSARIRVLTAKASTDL
Description: as §1, §2

SILAC ratio (SR), PTGR2 Y100 ([1]; 25 μM 2 h, live DM93 cells): 11
SILAC ratio (SR), PTGR2 Y265 ([1]; 25 μM 2 h, live DM93 cells): < 5
PTGR2 Y100 liganded ([1]; ligand-treated DM93 cells): ~90%
Compound: O=C(c1ccc(S(=O)(=O)n2cncn2)cc1)N1CCC(c2ccccc2)CC1 [HHS-0701, (4-((1H-1,2,4-triazol-1-yl)sulfonyl)phenyl)(4-phenylpiperidin-1-yl)methanone]
liganded tyrosine site 100 ([1]; 25 μM 2 h, live DM93 cells): HHS0701.Y (tyrosine sites that showed >80% reductions (SR >5) in probe labeling in cells treated with compounds (liganded sites))
liganded tyrosine site 619 [2]: HHS0701.Y (tyrosine sites that showed >80% reductions (SR >5) in probe labeling in cells treated with compounds (liganded sites))

Compound: O=C(NC1CC1)c1ccc(S(=O)(=O)n2cncn2)cc1 [HHS-0101, 4-((1H-1,2,4-triazol-1-yl)sulfonyl)-N-cyclopropylbenzamide]
SILAC ratio (SR), PTGR2 Y100 ([1]; 25 μM 2 h, live DM93 cells): 1.4
liganded tyrosine site 438 [2]: HHS0101.Y (tyrosine sites that showed >80% reductions (SR >5) in probe labeling in cells treated with compounds (liganded sites))
liganded tyrosine site 251 [3]: HHS0101.Y|HHS0401.Y (tyrosine sites that showed >80% reductions (SR >5) in probe labeling in cells treated with compounds (liganded sites))
liganded tyrosine site 332 [3]: HHS0101.Y (tyrosine sites that showed >80% reductions (SR >5) in probe labeling in cells treated with compounds (liganded sites))

Compound: O=C(NC1CCCCC1)c1ccc(S(=O)(=O)n2cncn2)cc1 [HHS-0301, 4-((1H-1,2,4-triazol-1-yl)sulfonyl)-N-cyclohexylbenzamide]
liganded tyrosine site 234 [3]: HHS0301.Y|HHS0401.Y (tyrosine sites that showed >80% reductions (SR >5) in probe labeling in cells treated with compounds (liganded sites))

Compound: O=C(NCc1ccccc1)c1ccc(S(=O)(=O)n2cncn2)cc1 [HHS-0401, 4-((1H-1,2,4-triazol-1-yl)sulfonyl)-N-benzylbenzamide]
liganded tyrosine site 265 ([1]; 25 μM 2 h, live DM93 cells): HHS0401.Y (tyrosine sites that showed >80% reductions (SR >5) in probe labeling in cells treated with compounds (liganded sites))
